Experimental data: ChEMBL document CHEMBL5321221, “Structure-activity relationship study of RSL3-based GPX4 degraders and its potential noncovalent optimization” (Eur J Med Chem, 2023)
The source made the active and inactive calls. The calls are words filed in the database; no cut-off is given here.

Legend:
[1] = biological target: T1, Phospholipid hydroperoxide glutathione peroxidase GPX4 (Homo sapiens) (UniProt P36969); test: Induction of GPX4 degradation in human HT-1080 cells at 10 uM incubated for 24 hrs relative to control; assay type: cell-based
T1 sequence (whole entry): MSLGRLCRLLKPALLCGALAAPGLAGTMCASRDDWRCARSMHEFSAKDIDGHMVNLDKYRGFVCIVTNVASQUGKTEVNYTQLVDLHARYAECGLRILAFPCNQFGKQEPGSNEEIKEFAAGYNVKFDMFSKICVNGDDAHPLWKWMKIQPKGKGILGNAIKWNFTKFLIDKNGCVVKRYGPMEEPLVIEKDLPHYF

[2] = biological target: T1, Phospholipid hydroperoxide glutathione peroxidase GPX4 (Homo sapiens); test: Induction of GPX4 degradation in human HT-1080 cells at 0.1 uM incubated for 6 hrs relative to control; assay type: cell-based
[3] = biological target: T1, Phospholipid hydroperoxide glutathione peroxidase GPX4 (Homo sapiens); test: Induction of GPX4 degradation in human HT-1080 cells at 10 nM incubated for 24 hrs relative to control; assay type: cell-based
[4] = biological target: T1, Phospholipid hydroperoxide glutathione peroxidase GPX4 (Homo sapiens); test: (§1) Induction of GPX4 degradation in human HT-1080 cells incubated for 6 hrs by Western blotting analysis; assay type: cell-based; settings: dose 0.0001-0.1 µM
[5] = biological target: T2, Phospholipid hydroperoxide glutathione peroxidase GPX4 (Homo sapiens, UniProt P36969); test: as §1; assay type: cell-based
T2 sequence (P36969 whole entry): T1 sequence (whole entry)

[6] = biological target: T1, Phospholipid hydroperoxide glutathione peroxidase GPX4 (Homo sapiens); test: Induction of GPX4 degradation in human HT-1080 cells at 0.0001 to 0.1 uM incubated for 1 hr by Western blotting analysis; assay type: cell-based; settings: dose 0.0001-0.1 µM
[7] = biological target: T1, Phospholipid hydroperoxide glutathione peroxidase GPX4 (Homo sapiens); test: Induction of GPX4 degradation in human HT-1080 cells at 0.0001 to 0.1 uM incubated for 24 hrs by Western blotting analysis; assay type: cell-based; settings: dose 0.0001-0.1 µM
[8] = biological target: T2, Phospholipid hydroperoxide glutathione peroxidase GPX4; test: Induction of GPX4 degradation in human NCI-H1650 cells incubated for 24 hrs; assay type: cell-based
[9] = biological target: T2, Phospholipid hydroperoxide glutathione peroxidase GPX4; test: Induction of GPX4 degradation in gefitinib resistant human NCI-H1650 cells incubated for 24 hrs; assay type: cell-based
HT-1080 [10] = test: Antiproliferative activity against human HT-1080 cells incubated for 24 hrs; assay type: functional, cell-based; settings: HT-1080, 24 h
[11] = Antiproliferative activity against human HEK293T cells incubated for 24 hrs; assay type: toxicity, cell-based, HEK-293T
HT-1080 [12] = test: Potency index, ratio of methyl (1S,3R)-1-(4-acetylphenyl)-2-(2-chloroacetyl)-2,3,4,9-tetrahydro-1H-pyrido[3,4-b]indole-3-carboxylate IC50 to test compound IC50 for antiproliferative activity against human HT-1080 cells; assay type: functional
HT-1080 [13] = test: Potency index, ratio of (4-(bis(4-chlorophenyl)methyl)piperazin-1-yl)(5-methyl-4-nitroisoxazol-3-yl)methanone IC50 to test compound IC50 for antiproliferative activity against human HT-1080 cells; assay type: functional
[14] = biological target: T1, Phospholipid hydroperoxide glutathione peroxidase GPX4 (Homo sapiens); test: Induction of GPX4 degradation in human HT-1080 cells in presence of RSL3; assay type: cell-based
[15] = biological target: T1, Phospholipid hydroperoxide glutathione peroxidase GPX4 (Homo sapiens); test: Induction of GPX4 degradation in human HT-1080 cells in presence of lenalidomide; assay type: cell-based
[16] = biological target: T1, Phospholipid hydroperoxide glutathione peroxidase GPX4 (Homo sapiens); test: Induction of GPX4 degradation in human HT-1080 cells at 0.1 uM pretreated for 2 hrs followed by MG132 and measured after 6 hrs; assay type: cell-based; settings: time 8.0 hrs
[17] = biological target: T1, Phospholipid hydroperoxide glutathione peroxidase GPX4 (Homo sapiens); test: Induction of GPX4 degradation in human HT-1080 cells at 0.1 uM pretreated for 2 hrs followed by PYR41 addition and measured after 6 hrs; assay type: cell-based; settings: time 8.0 hrs
HT-1080 [18] = test: Antiproliferative activity against human HT-1080 cells at 1 uM incubated for 24 hrs in presence of liproxstatin-1; assay type: functional, cell-based
[19] = biological target: T1, Phospholipid hydroperoxide glutathione peroxidase GPX4 (Homo sapiens); test: Induction of GPX4 degradation in human HT-1080 cells at 10 uM incubated for 24 hrs by Western blotting analysis; assay type: cell-based
HT-1080 [20] = test: Antiproliferative activity against human HT-1080 cells at 10 uM; assay type: functional, cell-based
[21] = biological target: T1, Phospholipid hydroperoxide glutathione peroxidase GPX4 (Homo sapiens); test: Induction of GPX4 degradation in human HT-1080 cells at 0.1 to 1 uM incubated for 24 hrs; assay type: cell-based; settings: dose 0.1-1 µM

## COC(=O)[C@H]1Cc2c([nH]c3ccccc23)[C@H](c2ccc(C(=O)NCc3cn(CCOCCOCCOCCOCCOCCNc4cccc5c4CN(C4CCC(=O)NC4=O)C5=O)nn3)cc2)N1C(=O)CCl (stereo partly specified)
[1]
  Activity: inactive

## COC(=O)[C@H]1Cc2c([nH]c3ccccc23)[C@H](c2ccc(C(=O)N3CCN(CCCCCCCCCCCCCCNc4cccc5c4C(=O)N(C4CCC(=O)NC4=O)C5=O)CC3)cc2)N1C(=O)CCl (stereo partly specified)
[2]
  Activity: 44%

## COC(=O)[C@H]1Cc2c([nH]c3ccccc23)[C@H](c2ccc(C(=O)N3CCN(CCCCCCCCCCCCCNc4cccc5c4CN(C4CCC(=O)NC4=O)C5=O)CC3)cc2)N1C(=O)CCl (stereo partly specified)
[2]
  Activity: 69%
[3]
  Activity: 57%
[4]
  Activity: Dose-Dependent Effect
[5]
  DC50: 37.4 nM
[6]
  Activity: Active
[7]
  Activity: Active
[8]
  DC50: 17.9 nM
[9]
  DC50: 22.9 nM
HT-1080 [10]
  IC50: 68 nM
[11]
  IC50 at 24 h: 205 nM
HT-1080 [12]
  Ratio IC50: 2
HT-1080 [13]
  Ratio IC50: 6
[14]
  Activity: Active
[15]
  Activity: Active
[16]
  Activity: inactive
[17]
  Activity: inactive
HT-1080 [18]
  Activity: inactive

## COC(=O)[C@H]1Cc2c([nH]c3ccccc23)[C@H](c2ccc(C(=O)NCc3cn(CCOCCOCCNc4cccc5c4C(=O)N(C4CCC(=O)NC4=O)C5=O)nn3)cc2)N1C(=O)CCl (stereo partly specified)
[1]
  Activity: 32%

## COC(=O)[C@H]1Cc2c([nH]c3ccccc23)[C@H](c2ccc(C(=O)N3CCN(CCCCCCCCCCCCCCNc4cccc5c4CN(C4CCC(=O)NC4=O)C5=O)CC3)cc2)N1C(=O)CCl (stereo partly specified)
[2]
  Activity: 58%

## COC(=O)[C@H]1Cc2c([nH]c3ccccc23)[C@H](c2ccc(C(=O)N3CCN(CCCCCCCCCCCCNc4cccc5c4C(=O)N(C4CCC(=O)NC4=O)C5=O)CC3)cc2)N1C(=O)CCl (stereo partly specified)
[2]
  Activity: 56%

## COC(=O)[C@H]1Cc2c([nH]c3ccccc23)[C@H](c2ccc(C(=O)NCc3cn(CCOCCOCCOCCOCCNc4cccc5c4CN(C4CCC(=O)NC4=O)C5=O)nn3)cc2)N1C(=O)CCl (stereo partly specified)
[1]
  Activity: inactive

## COC(=O)[C@H]1Cc2c([nH]c3ccccc23)[C@H](c2ccc(C(=O)N3CCN(CCCCCCCCCCCCCNc4cccc5c4C(=O)N(C4CCC(=O)NC4=O)C5=O)CC3)cc2)N1C(=O)CCl (stereo partly specified)
[2]
  Activity: 67%

## COC(=O)[C@H]1Cc2c([nH]c3ccccc23)[C@H](c2ccc(C(=O)NCc3cn(CCOCCOCCOCCNc4cccc5c4CN(C4CCC(=O)NC4=O)C5=O)nn3)cc2)N1C(=O)CCl (stereo partly specified)
[1]
  Activity: inactive

## COC(=O)[C@H]1Cc2c([nH]c3ccccc23)[C@H](c2ccc(C(=O)N3CCC(CN4CCN(CCCCCCCCNc5cccc6c5C(=O)N(C5CCC(=O)NC5=O)C6=O)CC4)CC3)cc2)N1C(=O)CCl (stereo partly specified)
[3]
  Activity: 34%

## COC(=O)[C@H]1Cc2c([nH]c3ccccc23)[C@H](c2ccc(C(=O)N3CCN(CCCCCCCCCCCNc4cccc5c4C(=O)N(C4CCC(=O)NC4=O)C5=O)CC3)cc2)N1C(=O)CCl (stereo partly specified)
[2]
  Activity: 46%

## COC(=O)[C@H]1Cc2c([nH]c3ccccc23)[C@H](c2ccc(C(=O)NCc3cn(CCOCCOCCOCCOCCNc4cccc5c4C(=O)N(C4CCC(=O)NC4=O)C5=O)nn3)cc2)N1C(=O)CCl (stereo partly specified)
[1]
  Activity: 35%

## COC(=O)[C@H]1Cc2c([nH]c3ccccc23)[C@H](c2ccc(C(=O)N3CCC(CN4CCN(CCCCCNc5cccc6c5C(=O)N(C5CCC(=O)NC5=O)C6=O)CC4)CC3)cc2)N1C(=O)CCl (stereo partly specified)
[3]
  Activity: 5%

## COC(=O)[C@H]1Cc2c([nH]c3ccccc23)[C@H](c2ccc(C(=O)N3CCN(CCCCCCCCCCCCNc4cccc5c4CN(C4CCC(=O)NC4=O)C5=O)CC3)cc2)N1C(=O)CCl (stereo partly specified)
[2]
  Activity: 68%

## COC(=O)[C@H]1Cc2c([nH]c3ccccc23)[C@H](c2ccc(C(=O)NCc3cn(CCOCCOCCOCCNc4cccc5c4C(=O)N(C4CCC(=O)NC4=O)C5=O)nn3)cc2)N1C(=O)CCl (stereo partly specified)
[1]
  Activity: 22%

## COC(=O)[C@H]1Cc2c([nH]c3ccccc23)[C@H](c2ccc(C(=O)NCc3cn(CCOCCOCCN[C@H](C(=O)N4C[C@H](O)C[C@H]4C(=O)N[C@@H](C)c4ccc(-c5scnc5C)cc4)C(C)(C)C)nn3)cc2)N1C(=O)CCl
[1]
  Activity: 49%

## CCCCCC(=O)N1[C@@H](c2ccc(C(=O)OC)cc2)c2[nH]c3ccccc3c2C[C@@H]1C(=O)OC
[19]
  Activity: inactive

## COC(=O)[C@H]1Cc2c([nH]c3ccccc23)[C@H](c2ccc(C(=O)NCc3cn(CCOCCOCCOCCOCCN[C@H](C(=O)N4C[C@H](O)C[C@H]4C(=O)N[C@@H](C)c4ccc(-c5scnc5C)cc4)C(C)(C)C)nn3)cc2)N1C(=O)CCl
[1]
  Activity: 12%

## COC(=O)[C@H]1Cc2c([nH]c3ccccc23)[C@H](c2ccc(C(=O)NCc3cn(CCOCCOCCOCCOCCOCCN[C@H](C(=O)N4C[C@H](O)C[C@H]4C(=O)N[C@@H](C)c4ccc(-c5scnc5C)cc4)C(C)(C)C)nn3)cc2)N1C(=O)CCl
[1]
  Activity: 11%

## COC(=O)[C@H]1Cc2c([nH]c3ccccc23)[C@H](c2ccc(C(=O)N3CCN(CCCCCCCCCCCNc4cccc5c4CN(C4CCC(=O)NC4=O)C5=O)CC3)cc2)N1C(=O)CCl (stereo partly specified)
[2]
  Activity: 64%

## COC(=O)[C@H]1Cc2c([nH]c3ccccc23)[C@H](c2ccc(C(=O)N3CCC(CN4CCN(CCCNc5cccc6c5C(=O)N(C5CCC(=O)NC5=O)C6=O)CC4)CC3)cc2)N1C(=O)CCl (stereo partly specified)
[3]
  Activity: 3%

## COC(=O)c1ccc([C@@H]2N[C@@H](C(=O)OC)Cc3c2[nH]c2ccccc32)cc1
[19]
  Activity: inactive

## COC(=O)[C@H]1Cc2c([nH]c3ccccc23)[C@H](c2ccc(C(=O)NCc3cn(CCOCCOCCNc4cccc5c4CN(C4CCC(=O)NC4=O)C5=O)nn3)cc2)N1C(=O)CCl (stereo partly specified)
[1]
  Activity: inactive

## CCC(=O)N1[C@@H](c2ccc(C(=O)OC)cc2)c2[nH]c3ccccc3c2C[C@@H]1C(=O)OC
[19]
  Activity: inactive

## CCC(=O)N1[C@@H](c2ccc(C(=O)N3CCN(CCCCCCCCCCCCCNc4cccc5c4CN(C4CCC(=O)NC4=O)C5=O)CC3)cc2)c2[nH]c3ccccc3c2C[C@@H]1C(=O)OC (stereo partly specified)
[19]
  Activity: inactive

## CCCC(=O)N1[C@@H](c2ccc(C(=O)OC)cc2)c2[nH]c3ccccc3c2C[C@@H]1C(=O)OC
[19]
  Activity: inactive

## COC(=O)[C@H]1Cc2c([nH]c3ccccc23)[C@H](c2ccc(C(=O)NCc3cn(CCOCCOCCOCCOCCOCCNc4cccc5c4C(=O)N(C4CCC(=O)NC4=O)C5=O)nn3)cc2)N1C(=O)CCl (stereo partly specified)
[1]
  Activity: 15%

## Cc1onc(C(=O)N2CCN(C(c3ccc(Cl)cc3)c3ccc(Cl)cc3)CC2)c1[N+](=O)[O-]
HT-1080 [10]
  IC50: 410 nM
[11]
  IC50 at 24 h: 430 nM

## COC(=O)[C@H]1Cc2c([nH]c3ccccc23)[C@H](c2ccc(C(=O)N3CCC(N4CCN(CCCCCCCCCNc5cccc6c5CN(C5CCC(=O)NC5=O)C6=O)CC4)CC3)cc2)N1C(=O)CCl (stereo partly specified)
[3]
  Activity: 15%

## COC(=O)[C@H]1Cc2c([nH]c3ccccc23)[C@H](c2ccc(C(=O)N3CCN(CCCCCCCNc4cccc5c4CN(C4CCC(=O)NC4=O)C5=O)CC3)cc2)N1C(=O)CCl (stereo partly specified)
[2]
  Activity: 10%

## COC(=O)[C@H]1Cc2c([nH]c3ccccc23)[C@H](c2ccc(C(=O)NCc3cn(CCOCCOCCOCCN[C@H](C(=O)N4C[C@H](O)C[C@H]4C(=O)N[C@@H](C)c4ccc(-c5scnc5C)cc4)C(C)(C)C)nn3)cc2)N1C(=O)CCl
[1]
  Activity: 50%
HT-1080 [20]
  Activity: Active
[21]
  Activity: inactive

## COC(=O)[C@H]1Cc2c([nH]c3ccccc23)[C@H](c2ccc(C(=O)N3CCN(CCCCCCCCCNc4cccc5c4CN(C4CCC(=O)NC4=O)C5=O)CC3)cc2)N1C(=O)CCl (stereo partly specified)
[2]
  Activity: 48%
